Test results taken from patent publication US20200158718A1, “A METHOD FOR PREDICTING TIME-TO-VIRAL CLEARANCE IN PATIENTS WITH CHRONIC HEPATITIS C VIRUS (HCV) INFECTION UNDER DIRECT ACTING ANTIVIRAL (DAA) THERAPY” (priority 2017, published 2020).
Where “and” joins values, the source holds several entries; their conditions need not be identical. Identical values can stand only once.

Experiments:
Assay type in all cases: in vivo, human
[1] = system: ALT, alanine aminotransferase; test: Observational trial (training set): ALT level of chronic HCV patients under DAA therapy; settings: one line per patient (Table 3); for ALT level EOT: end of treatment; for ALT level wk 4: week 4 of therapy; for ALT level SVR12: week 12 after end of treatment
Experimental: (§1) Peripheral blood samples were provided by patients with chronic HCV infection, who were participating in an observational trial (clinicaltrials.gov: NCT02904603) authorized by the local ethics committee. For a training trial, 23 patients (genotype 1a (n=10), 1b (n=9) and 3 (n=4)) were treated with daclatasvir plus sofosbuvir (DCV/SOF; n=15), ledipasvir plus sofosbuvir (LDV/SOF; n=4) or with ritonavir-boosted paritaprevir, ombitasvir, and dasabuvir (n=4).
(§2) A sustained virological response to DAA therapy is generally achieved in 85-99% of chronic HCV patients, depending upon viral genotype, patient-related factors and the choice of treatment regime. In the present study of 23 patients with chronic HCV infection, 22 had achieved a sustained virological response at 12 weeks post-treatment (SVR12). Clearance of virus was associated with improved liver function and reduction in systemic markers of liver inflammation. Although most patients achieved sustained virological responses by 12 weeks, there was considerable variation in time to HCV RNA negativity and normalization of biochemical parameters. Baseline mean HCV RNA titer was 6.12±0.12 log 10 IU/ml, falling to 1.2±0.14 log 10 IU/ml by 4 weeks, at which time 12/23 patients were HCV RNA <12 IU/ml. HCV establishes persistent infections during which virus-specific CD4+ and CD8+ T cells become impaired through progressive functional exhaustion or clonal deletion, and intrahepatic NK cell responses are subdued. […] In particular, this study aimed to identify a minimal set of immunological markers that accurately classified patients with chronic HCV infections as “fast responders” (i.e. HCV RNA <12 IU/ml by 4 weeks) or “slow responders” (i.e. HCV RNA >12 IU/ml at 4 weeks, irrespective of later outcome). These biomarkers were to be independent of viral genotype, baseline fibrosis score, previous HCV treatment, and other patient-related factors. Therefore, the influence of the ALT levels, of the HCV genotype, of a previous treatment for chronic HCV, and the pre-treatment fibrosis score were also analyzed.

[2] = system: hepatitis C virus (HCV); test: Prospective set: HCV-RNA at week 4 of DAA therapy in a further 10 chronic HCV patients; settings: one line per patient (Table 5, prospective set)
Description: To verify that the model accurately predicted fast and slow responses, data were collected from a further 10 chronic HCV patients prior to DAA treatment (Table 5). In this “prospective set”, 8 patients were slow responders and 2 were fast responders: all slow responders were correctly classified as such (Table 2D). The model also correctly identified 1 of 2 fast responders. […] For the purpose of prospectively and safely shortening DAA therapy, a test with high specificity is more important than one with high sensitivity.
To verify that the herein disclosed model accurately predicts fast and slow responses, data were collected from a further 10 chronic HCV patients prior to DAA treatment (cf. the Table 5 below).

[3] = system: hepatitis C virus (HCV); test: Observational trial (training set): HCV-RNA / virological response of chronic HCV patients under DAA therapy; settings: for HCV-RNA EOT / HCV-RNA wk 4 / HCV-RNA SVR12: one line per patient (Table 3); for HCV-RNA EOT: end of treatment; for HCV-RNA wk 4: week 4 of therapy; for HCV-RNA SVR12: week 12 after end of treatment; for Response to DAA Therapy: one line per patient (Table 1, patients 1-23), SVR12 = undetectable HCV-RNA at week 12 after end of treatment, relapse = undetectable at EOT but detectable during follow-up, patients 5, 9 treated 24 weeks, patients 18, 23 treated 8 weeks
Experimental: The expression “time-to-viral clearance” indicates the period until no HCV RNA detection with currently available detection methods, e.g. as measured by PCR, particularly by quantitative real-time PCR in peripheral blood samples, e.g. in samples of at least 5 ml EDTA blood or whole blood is possible. Using a standard PCR-based test, fewer than 12 copies per milliliter blood is considered to be clinically clear of HCV (Table 3).
as §1, §2

Row | Substance | ALT level EOT [1] | ALT level wk 4 [1] | ALT level SVR12 [1] | Response to DAA Therapy wk 4 [2] | HCV-RNA EOT [3] | HCV-RNA wk 4 [3] | HCV-RNA SVR12 [3] | Response to DAA Therapy [3]
1 | daclatasvir plus sofosbuvir [SOF + DCV] | 44 U/L and 46 U/L and 24 U/L and 45 U/L and 61 U/L and 42 U/L and 30 U/L and 70 U/L and 17 U/L and 23 U/L (2×) and 47 U/L and 22 U/L and 19 U/L and 31 U/L | 38 U/L and 42 U/L and 27 U/L and 51 U/L and 47 U/L and 34 U/L (2×) and 25 U/L and 62 U/L and 22 U/L and 31 U/L and 28 U/L and 29 U/L and 24 U/L and 23 U/L | 31 U/L and 35 U/L and 21 U/L (3×) and 41 U/L and 37 U/L and 43 U/L and 24 U/L and 62 U/L and 17 U/L and 107 U/L and 25 U/L and 23 U/L and 42 U/L | 30 IU/ml | neg. (7×) and <12 IU/ml (8×) | <12 IU/ml (4×) and neg | neg. | 
2 | ledipasvir plus sofosbuvir [SOF + LDV] | 31 U/L and 64 U/L and 23 U/L and 24 U/L | 31 U/L and 74 U/L and 22 U/L and 24 U/L | 27 U/L and 32 U/L and 21 U/L and 10 U/L | 61 IU/ml and <12 IU/ml (2×) and 51 IU/ml and 12 IU/ml (2×) and 14 IU/ml | neg. | <12 IU/ml | neg. | SVR12
3 | ritonavir-boosted paritaprevir, ombitasvir, and dasabuvir [3D] | 21 U/L and 15 U/L and 23 U/L | 24 U/L and 17 U/L and 19 U/L | 24 U/L and 21 U/L |  | neg. | neg | neg. | SVR12
